Our source for the Activity values is ChEMBL document CHEMBL2321755 (Bioorg Med Chem, 2013).

Active and inactive are the calls of the source. The rule behind the calls is not given here.

In this test the test system is Rattus norvegicus. As to the kind of experiment: Antidiabetic activity in po dosed streptzotocin-induced-diabetic Wistar rat model assessed as reduction glucose absorption at 30 mg/kg, po. The format is functional, organism-based. More on the design: dose 30 mg/kg.

As to `C[C@H]1O[C@H](O[C@H]2[C@H](O)[C@@H](O)[C@@H](O[C@H]3[C@H](O)[C@@H](O)C(O)O[C@@H]3CO)O[C@@H]2CO)[C@H](O)[C@@H](O)[C@@H]1N[C@H]1C=C(CO)[C@@H](O)[C@H](O)[C@H]1O` (stereo partly specified), the result was inactive.
